Test results published in US20100292205A1, “Pyrimidone Compounds As GSK-3 Inhibitors” (PFIZER INC., priority 2006, published 2010).
Read-outs that look alike come from different tables or passages of the source. Values belong to the molecule of their own block, whether it stands above or below them.

Biological target: T1, Recombinant human GSK3β (Homo sapiens, UniProt P49841)
T1 construct: His-tag; made in house; host or cells: Sf9 insect cells / baculovirus
Test: GSK-3β (Glycogen Synthase Kinase) cell free enzyme assay
Type: biochemical
Settings: for IC50: cell free enzyme assay; for inhibition at 1 µM: read-out: Percent inhibition at 1 μM
Protocol: Assay Protocol for GSK-3β (Glycogen Synthase Kinase) in a Cell Free Enzyme Assay
Recombinant human GSK3β was expressed in SF9/Baculo virus cells. His-tag protein was purified by affinity chromatography to a Ni-NTA Superflow column. Enzyme activity was assayed as the incorporation of [33P] from the gamma phosphate of [33P]ATP (PerkinElmer) into biotinylated peptide substrate bio-LC-S-R-H-S-S-P-H-Q-pS-E-D-E-E-E-OH (Anaspec). Reactions were carried out in a buffer containing 8 mM MOPS (pH 7.0), 10 mM Magnesium Acetate, 0.2 mM EDTA, 1 mM DTT and 2 uM cold ATP. The 33P-ATP was added for 0.025 uCi/well (120 uL) and the final concentration of substrate was 1.0 uM. Enzyme was preincubated with test agent for 30 minutes at room temperature followed by initiation of the reaction by the addition of substrate mix. Incubations were carried out at RT for 60 min. Reactions were stopped by addition of 0.66 volume of buffer containing: 12.5 mM EDTA, 0.25% Triton-X 100, 125 uM ATP, and 6.2 mg/ml streptavidin coated SPA beads (Amersham) in PBS without Ca or Mg. Radioactivity associated with the beads was quantified by scintillation counting of CPM in a Trilux counter (PerkinElmer).
Examples 42 to 60 were prepared using the analogous procedure described to prepare Example 41, substituting the appropriate starting material (Examples 1 to 35) and coupling with the appropriate acid. The assay protocol used is the percent inhibition at 1 μM for GSK-3β in the cell free enzyme assay described above.

[1] = GSK-3β cell free enzyme assay, Examples 42-60

T1 sequence (P49841 whole entry): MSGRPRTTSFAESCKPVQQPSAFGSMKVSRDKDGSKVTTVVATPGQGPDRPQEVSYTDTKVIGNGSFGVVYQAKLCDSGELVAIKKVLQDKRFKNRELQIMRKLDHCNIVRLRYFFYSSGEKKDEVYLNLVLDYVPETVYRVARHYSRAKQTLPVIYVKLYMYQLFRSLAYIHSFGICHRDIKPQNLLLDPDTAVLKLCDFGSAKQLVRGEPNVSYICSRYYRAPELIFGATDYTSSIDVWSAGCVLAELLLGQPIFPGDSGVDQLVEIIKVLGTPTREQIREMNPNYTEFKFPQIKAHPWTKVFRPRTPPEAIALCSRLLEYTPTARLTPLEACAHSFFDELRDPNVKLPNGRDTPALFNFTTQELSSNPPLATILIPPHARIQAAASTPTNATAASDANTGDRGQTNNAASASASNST

IC50 (Examples 1-35): 71 nM
SMILES: Cn1c(NC[C@H]2CCCN2C(=O)OC(C)(C)C)nc(-c2ccncc2)cc1=O [Example 32, tert-butyl (2R)-2-{[(1-Methyl-6-oxo-4-pyridin-4-yl-1,6-dihydropyrimidin-2-yl)amino]methyl} pyrrolidine-1-carboxylate]

IC50 (Examples 265-291): 58.6 nM
SMILES: CN(c1nc(-c2ccncc2F)cc(=O)n1C)[C@H]1[C@@H]2CN(c3nnnn3C)C[C@@H]21 [Example 279, 6-(3-Fluoropyridin-4-yl)-3-methyl-2-{methyl[(1R,5S,6s)-3-(1-methyl-1H-tetrazol-5-yl)-3-azabicyclo[3.1.0]hex-6-yl]amino}pyrimidin-4(3H)-one]

IC50 (Examples 62-155): 16.1 nM
SMILES: Cc1cc(C(=O)N2C[C@@H]3[C@H](C2)[C@H]3N(C)c2nc(-c3ccncc3F)cc(=O)n2C)cc(Cl)n1 [Example 104, 2-{[(1R,5S,6s)-3-(2-Chloro-6-methylisonicotinoyl)-3-azabicyclo[3.1.0]hex-6-yl](methyl)amino}-6-(3-fluoropyridin-4-yl)-3-methylpyrimidin-4(3H)-one]

IC50 (Examples 1-35): 24.1 nM
SMILES: Cn1c(NC2CCCCN(C(=O)OC(C)(C)C)C2)nc(-c2ccncc2)cc1=O (centres unmarked) [Example 20, tert-butyl 3-[(1-Methyl-6-oxo-4-pyridin-4-yl-1,6-dihydropyrimidin-2-yl)amino]azepane-1-carboxylate]

inhibition at 1 µM (Examples 157-199): 96%
SMILES: Cn1c(N[C@H]2CN(S(=O)(=O)c3ccccc3)C[C@@H]2F)nc(-c2ccncc2)cc1=O [Example 176, 2-{[(3S,4S)-4-Fluoro-1-(phenylsulfonyl)pyrrolidin-3-yl]amino}-3-methy!-6-pyridin-4-ylpyrimidin-4(3H)-one]

inhibition at 1 µM (Examples 236-262): 76%
SMILES: CN(c1nc(-c2ccncc2)cc(=O)n1C)C1CCCN(Cc2ccccc2)CC1 (centres unmarked) [Example 255, 2-[(1-Benzylazepan-4-yl)(methyl)amino]-3-methyl-6-pyridin-4-ylpyrimidin-4(3H)-one]

IC50 (Examples 1-35): 10.7 nM
SMILES: CC1c2cccn2CCN1c1nc(-c2ccncc2)cc(=O)n1C (centres unmarked) [Example 7, 3-Methyl-2-(1-methyl-3,4-dihydropyrrolo[1,2-a]pyrazin-2(1H)-yl)-6-pyridin-4-ylpyrimidin-4(3H)-one]

inhibition at 1 µM [1]: 85%
SMILES: CCN(c1nc(-c2ccncc2)cc(=O)n1C)C1CCCN(C(C)=O)CC1 (centres unmarked) [Example 56, 2-[(1-Acetylazepan-4-yl)(ethyl)amino]-3-methyl-6-pyridin-4-ylpyrimidin-4(3H)-one]

inhibition at 1 µM [1]: 51%
SMILES: CC(=O)N1CCCCC(Nc2nc(-c3ccncc3)cc(=O)n2C)C1 (centres unmarked) [Example 46, 2-[(1-Acetylazepan-3-yl)amino]-3-methyl-6-pyridin-4-ylpyrimidin-4(3H)-one]

IC50 (Examples 62-155): 13.6 nM
SMILES: COc1cccc(CC(=O)N2C[C@@H]3[C@H](C2)[C@H]3N(C)c2nc(-c3ccncc3F)cc(=O)n2C)c1 [Example 101, 6-(3-Fluoropyridin-4-yl)-2-[{(1R,5S,6s)-3-[(3-methoxyphenyl)acetyl]-3-azabicyclo[3.1.0]hex-6-yl}(methyl)amino]-3-methylpyrimidin-4(3H)-one]

IC50 (Examples 265-291): 27.7 nM
SMILES: CN(c1nc(-c2ccncc2F)cc(=O)n1C)[C@H]1[C@@H]2CN(c3nnnn3Cc3cccc(OC(F)(F)F)c3)C[C@@H]21 [Example 290, 6-(3-Fluoropyridin-4-yl)-3-methyl-2-{methyl[(1R,5S,6s)-3-{1-[3-(trifluoromethoxy)benzyl]-1H-tetrazol-5-yl}-3-azabicyclo[3.1.0]hex-6-yl]amino}pyrimidin-4(3H)-one]

IC50 (Examples 1-35): 113 nM
SMILES: Cn1c(NCC2CCN(C(=O)OC(C)(C)C)C2)nc(-c2ccncc2)cc1=O (centres unmarked) [Example 34, tert-butyl 3-{[(1-Methyl-6-oxo-4-pyridin-4-yl-1,6-dihydropyrimidin-2-yl)amino]methyl} pyrrolidine-1-carboxylate]

inhibition at 1 µM (Examples 201-221): 95%
SMILES: COC(=O)N1CCC(N(C)c2nc(-c3ccncc3)cc(=O)n2C)C1 (centres unmarked) [Example 213, Methyl 3-[methyl(1-methyl-6-oxo-4-pyridin-4-yl-16-dihydropyrimidin-2-yl)amino]pyrrolidine-1-carboxylate]

inhibition at 1 µM (Examples 157-199): 79%
SMILES: CN(c1nc(-c2ccncc2)cc(=O)n1C)C1CCN(S(C)(=O)=O)C1 (centres unmarked) [Example 160, 3-Methyl-2-(methyl[1-(methylsulfonyl)pyrrolidin-3-yl]amino}-6-pyridin-4-ylpyrimidin-4(3H)-one]

IC50 (Examples 62-155): 16 nM
SMILES: CSCCC(=O)N1C[C@@H]2[C@H](C1)[C@H]2N(C)c1nc(-c2ccncc2F)cc(=O)n1C [Example 102, 6-(3-Fluoropyridin-4-yl)-3-methyl-2-(methyl{(1R,5S,6s)-3-[3-(methylthio)propanoyl]-3-azabicyclo[3.1.0]hex-6-yl}amino)pyrimidin-4(3H)-one]

IC50 (Examples 62-155): 2 nM
SMILES: Cn1c(N[C@H]2[C@@H]3CN(C(=O)c4ccccc4)C[C@@H]32)nc(-c2ccncc2)cc1=O [Example 67, 2-{[(1R,5S,6s)-3-Benzoyl-3-azabicyclo[3.1.0]hex-6-yl]amino}-3-methyl-6-pyridin-4-ylpyrimidin-4(3H)-one]

IC50 (Examples 62-155): 6.16 nM
SMILES: CN(c1nc(-c2ccncc2F)cc(=O)n1C)[C@H]1[C@@H]2CN(C(=O)Cc3cccs3)C[C@@H]21 [Example 146, 6-(3-Fluoropyridin-4-yl)-3-methyl-2-{methyl[(1R,5S,6s)-3-(2-thienylacetyl)-3-azabicyclo[3.1.0]hex-6-yl]amino}pyrimidin-4(3H)-one]

IC50 (Examples 265-291): 14.2 nM
SMILES: COc1ccc2oc(N3C[C@@H]4[C@H](C3)[C@H]4N(C)c3nc(-c4ccncc4F)cc(=O)n3C)nc2c1 [Example 267, 6-(3-Fluoropyridin-4-yl)-2-{[(1R,5S,6s)-3-(5-methoxy-1,3-benzoxazol-2-yl)-3-azabicyclo[3.1.0]hex-6-yl](methyl)amino}-3-methylpyrimidin-4(3H)-one]

inhibition at 1 µM (Examples 157-199): 89%
SMILES: CCN(c1nc(-c2ccncc2)cc(=O)n1C)C1CCN(S(=O)(=O)Cc2ccccc2)CC1 [Example 199, 2-{[1-(Benzylsulfonyl)piperidin-4-yl](ethyl)amino}-3-methyl-6-pyridin-4-ylpyrimidin-4(3H)-one]

inhibition at 1 µM (Examples 236-262): 67%
SMILES: CN1C[C@H](F)[C@H](Nc2nc(-c3ccncc3)cc(=O)n2C)C1 [Example 246, 2-{[(3R,4S)-4-Fluoro-1-methylpyrrolidin-3-yl]amino}-3-methyl-6-pyridin-4-ylpyrimidin-4(3H)-one]

IC50 (Examples 62-155): 1.05 nM
SMILES: Cc1cccc(C(=O)N2C[C@@H]3[C@H](C2)[C@H]3N(C)c2nc(-c3ccncc3F)cc(=O)n2C)c1 [Example 132, 6-(3-Fluoropyridin-4-yl)-3-methyl-2-{methyl[(1R,5S,6s)-3-(3-methylbenzoyl)-3-azabicyclo[3.1.0]hex-6-yl]amino}pyrimidin-4(3H)-one]

IC50 (Examples 62-155): 4.39 nM
SMILES: CN(c1nc(-c2ccncc2F)cc(=O)n1C)[C@H]1[C@@H]2CN(C(=O)c3ccccc3C(F)(F)F)C[C@@H]21 [Example 98, 6-(3-Fluoropyridin-4-yl)-3-methyl-2-(methyl{(1R,5S,6s)-3-[2-(trifluoromethyl)benzoyl]-3-azabicyclo[3.1.0]hex-6-yl}amino)pyrimidin-4(3H)-one]

IC50 (Examples 62-155): 26.4 nM
SMILES: CN(c1nc(-c2ccncc2F)cc(=O)n1C)[C@H]1[C@@H]2CN(C(=O)c3ccc(C(F)(F)F)nc3)C[C@@H]21 [Example 154, 6-(3-Fluoropyridin-4-yl)-3-methyl-2-{methyl[(1R,5S,6s)-3-{[6-(trifluoromethyl)pyridin-3-yl]carbonyl}-3-azabicyclo[3.1.0]hex-6-yl]amino}pyrimidin-4(3H)-one]
